Reference: US11123304B2, “Nanoparticles having poly(ester amide) polymer cores as drug delivery vehicles” (The Brigham and Women's Hospital, Inc., priority 2017, dated 2021)

Legend:
blood glucose levels [1] = experiment: Hypoglycemic effect of oral insulin-loaded NPs in normal rats; type: in vivo, Sprague Dawley rats; settings: subcutaneous injection
Method: Sprague Dawley rats (n=6 per group) were fasted overnight before experiments, but allowed free access to water. The animals were administered Tf-coated NPs and BSA-coated NPs (PEA75) in PBS (1.5 mL per 100 g of body weight), at an insulin dose of 50 U/kg, by oral gavage. Tf-coated NPs were tested with four different formulations, including PEA50 NPs, PEA75 NPs, PLGA-PEA50 NPs, and PLGA-PEA75 NPs. As controls, saline and free insulin (50 U/kg) were administered by oral gavage. One group of animals was administered with insulin solution (2 U/kg) by subcutaneous (SC) injection, which was used for the calculation of relative pharmacological availability (PA %). The blood glucose levels were measured as described above, and the pharmacological availability for different formulations was calculated relative to the SC route. […] All four tested Tf-coated NPs elicited a significant hypoglycemic response, reducing glucose during the first 1-6 hours after administration as shown in Table 3.

blood glucose levels [2] = experiment: Hypoglycemic effect of oral insulin-loaded NPs in diabetic mice; type: in vivo, BALB/c mice; settings: subcutaneous injection
Method: For the evaluation of in vivo efficacy in diabetic animals, insulin-dependent (type 1) diabetes was induced in male BALB/c mice (Charles River Laboratories) by a single injection of streptozotocin solution ([…]) as previously described (see, e.g., 7. S. Arora, S. K. Ojha, D. Vohora, Global J. Pharmacol. 2009, 3, 81-84). Animals were considered to be diabetic if they had fasting glycemia higher than 16.0 mM one week after the injection. The diabetic mice (n=6 per group) were fasted overnight and then administered different samples by gavage, including saline, free insulin, Tf-coated NPs (PEA75), and BSA-coated NPs (PEA75) (insulin dose of 50 U/kg, 1.5 mL per 100 g of body weight). One group of animals was administered an insulin solution (5 U/kg) by subcutaneous (SC) injection. The blood glucose levels were measured as described above, and the pharmacological availability for different formulations was calculated relative to the SC route.

blood glucose levels [3] = experiment: Bioactivity of insulin released from NPs, subcutaneous injection; type: in vivo, Sprague Dawley rats; settings: 2 U/kg subcutaneous, insulin released in PBS 2 hours at 37° C.
Method: To study the bioactivity of insulin after the preparation and drug release process, NPs were allowed to release insulin in PBS for 2 hours at 37° C. Then the NPs were isolated from the released insulin by ultra-centrifugation. Sprague Dawley rats (Dashuo Laboratory Animal Center) (n=4 per group) were fasted overnight, and then administered the released insulin (2 U/kg) or original free insulin (2 U/kg) and saline, by subcutaneous injection. Blood glucose levels were measured with the AlphaTRAK blood glucose monitoring system (Abbott).

Substance	AAC (area above the serum glucose concentration curve) (blood glucose levels [1]; 2 U/kg)	Tmax (blood glucose levels [1]; 2 U/kg)	PA (relative pharmacological availability) (blood glucose levels [1]; 2 U/kg (reference route))	AAC (area above the serum glucose concentration curve) (blood glucose levels [2]; 5 U/kg)	Tmax (blood glucose levels [2]; 5 U/kg)	PA (relative pharmacological availability) (blood glucose levels [2]; 5 U/kg (reference route))	Hypoglycemic response of released insulin (blood glucose levels [3])
insulin [Free Insulin]	92.8 %*h	30 min	100.0%	227.5 %*h	60 min	100.0%	–
released insulin: insulin released from the NPs in PBS for 2 hours at 37° C. and separated by ultra-centrifugation	–	–	–	–	–	–	hypoglycemic response analogous to an equivalent dose of free insulin solution
